# Laboratory results reported in patent US12077486B2, “Quaternary fatty amidoamine detergents” (NOURYON CHEMICALS INTERNATIONAL B.V., priority 2018, dated 2024).
# What was measured:
# [1] = solubility in an a-polar medium; type: physicochemical
# Procedure: Throughout this document, unless indicated differently, the weight percentages of the compositions are based on the total weight of the composition, whereby the total weight of the composition is 100 wt %. The term water-soluble is used for materials that dissolve in an amount of at least 1 g per liter of demineralized water at 25° C. Where used, the term “consisting” also embraces “consisting substantially”, but may optionally be limited to its strict meaning of “consisting entirely”. An a-polar (nonpolar) medium is herein defined as a material having a dielectric coefficient of less than 7 at 20° C. Typically it is a liquid at the temperature of use. Suitably it is a medium with a dielectric coefficient at 20° C. of less than 6.5, 6, 5.5, 5, 4.5, 4, 3.5, or 3. The dielectric constant is measured in accordance with ASTM D150. The term “substantially free” is used fora moiety that is present in an amount of less than 2% by weight. Similarly, the term “essentially” is used to denote a composition that consists for more than 95% by weight of the indicated components.
# [2] = stabilization of a dispersion of solids in a-polar medium; settings: over a wide range of temperatures
smiles,measurement,setting,value
CCCCC/C=C\CCC(CCCCCCCC(=O)NCCC[N+](C)(C)C)C(CCCCCCCC)CCCCCCCCC(=O)NCCC[N+](C)(C)C (centres unmarked) [Preparation Example 1],dissolution in an a-polar medium,[1],easily dissolve
same,stabilization of a dispersion of solids in the dissolution,[2],perfectly stabilize
